Laboratory results published in PubChem BioAssay AID192 (DTP/NCI, 2004).
“And” between values parts separate entries of the source, which are not always exact repeats. Equal values may be shown once. Toxic doses and inconclusive results are not listed.

System: BDF1 mice, B16 melanoma ip, median survival T/C
Assay: NCI In Vivo Anticancer Drug Screen. Data for tumor model B16 Melanoma (intraperitoneal) in B6D2F1 (BDF1) mice
Conditions: endpoint: median survival time, higher = longer survival
How it was run: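 Mice with transplantable tumors; drug vs vehicle groups; endpoint survival or tumor size; value = T/C.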

[1] = dose: 100.0 mg/kg/injection, schedule: Q01DX009 (ip), vehicle: Klucel (hydroxypropylcellulose) (HPC)
[2] = dose: 200.0 mg/kg/injection, schedule: Q01DX009 (ip), vehicle: Klucel (hydroxypropylcellulose) (HPC)
[3] = dose: 400.0 mg/kg/injection, schedule: Q01DX009 (ip), vehicle: Klucel (hydroxypropylcellulose) (HPC)
[4] = dose: 6.25 mg/kg/injection, schedule: Q01DX009 (ip), vehicle: Klucel (hydroxypropylcellulose) (HPC)
[5] = dose: 12.5 mg/kg/injection, schedule: Q01DX009 (ip), vehicle: Klucel (hydroxypropylcellulose) (HPC)
[6] = dose: 25.0 mg/kg/injection, schedule: Q01DX009 (ip), vehicle: Klucel (hydroxypropylcellulose) (HPC)
[7] = dose: 50.0 mg/kg/injection, schedule: Q01DX009 (ip), vehicle: Klucel (hydroxypropylcellulose) (HPC)
[8] = dose: 100.0 mg/kg/injection, schedule: Q01DX009 (ip), vehicle: saline with Tween-80
[9] = dose: 200.0 mg/kg/injection, schedule: Q01DX009 (ip), vehicle: saline with Tween-80
[10] = dose: 100.0 mg/kg/injection, schedule: Q04DX003 (ip), vehicle: saline with Tween-80
[11] = dose: 200.0 mg/kg/injection, schedule: Q04DX003 (ip), vehicle: saline with Tween-80
[12] = dose: 3.12 mg/kg/injection, schedule: Q01DX009 (ip), vehicle: Klucel (hydroxypropylcellulose) (HPC)

Question: Which T/C (dose: 6.25 mg/kg/injection, schedule: Q01DX009 (ip), vehicle: saline with Tween-80) does the source give for `CC(=O)N(C)c1ccc(/C=C2\C=Cc3ccccc32)cc1` here?
Answer: The T/C was 96 % of control.

Question: What about the T/C (dose: 12.5 mg/kg/injection, schedule: Q01DX009 (ip), vehicle: saline with Tween-80) of the same compound?
Answer: The T/C was 100 % of control.

Question: And the T/C (dose: 25.0 mg/kg/injection, schedule: Q01DX009 (ip), vehicle: saline with Tween-80)?
Answer: The T/C was 102 % of control.

Question: `CC(CCCN(CCCl)CCCl)Nc1ccnc2cc(Cl)ccc12` (stereo unspecified) was tested. Which T/C (dose: 0.25 mg/kg/injection, schedule: Q01DX009 (ip), vehicle: saline + alcohol) did it give?
Answer: The T/C was 94 % of control.

Question: What about the T/C (dose: 0.25 mg/kg/injection, schedule: Q04DX003 (ip), vehicle: saline + alcohol) of the same compound?
Answer: Its T/C is 100 % of control.

Question: And the T/C (dose: 0.5 mg/kg/injection, schedule: Q01DX009 (ip), vehicle: saline + alcohol)?
Answer: The T/C was 94 % of control.

Question: And the T/C (dose: 0.5 mg/kg/injection, schedule: Q04DX003 (ip), vehicle: saline + alcohol)?
Answer: The T/C was 106 % of control.

Question: And the T/C (dose: 1.0 mg/kg/injection, schedule: Q01DX009 (ip), vehicle: saline + alcohol)?
Answer: The T/C was 97 % of control.

Question: What about the T/C (dose: 1.0 mg/kg/injection, schedule: Q04DX003 (ip), vehicle: saline + alcohol) of the same compound?
Answer: Its T/C is 112 % of control.

Question: And the T/C (dose: 2.0 mg/kg/injection, schedule: Q01DX009 (ip), vehicle: saline + alcohol)?
Answer: The T/C was 88 % of control.

Question: And the T/C (dose: 2.0 mg/kg/injection, schedule: Q04DX003 (ip), vehicle: saline + alcohol)?
Answer: Its T/C is 118 % of control.

Question: For `CSc1ncnc2c1ncn2-n1cccc1`, which T/C [1] is on record?
Answer: Its T/C is 88 % of control.

Question: And the T/C (dose: 100.0 mg/kg/injection, schedule: Q04DX003 (ip), vehicle: Klucel (hydroxypropylcellulose) (HPC))?
Answer: Its T/C is 100 % of control.

Question: What about the T/C [2] of the same compound?
Answer: Its T/C is 88 % of control.

Question: And the T/C (dose: 200.0 mg/kg/injection, schedule: Q04DX003 (ip), vehicle: Klucel (hydroxypropylcellulose) (HPC))?
Answer: Its T/C is 100 % of control.

Question: And the T/C [3]?
Answer: The T/C was 113 % of control.

Question: What about the T/C (dose: 400.0 mg/kg/injection, schedule: Q04DX003 (ip), vehicle: Klucel (hydroxypropylcellulose) (HPC)) of the same compound?
Answer: The T/C was 100 % of control.

Question: What does the source list for `O=C(Nc1ccc(N=C=S)cc1Cl)c1cc(Cl)cc(Cl)c1O`?
Answer: T/C [4]: 104 % of control; T/C [5]: 102 % of control and 111 % of control; T/C [6]: 110 % of control and 111 % of control; T/C [7]: 108 % of control and 118 % of control

Question: What does the source list for `CC1(C)SC2C(NC(=O)C(N)c3ccccc3)C(=O)N2C1C(=O)O` (stereo unspecified)?
Answer: T/C [8]: 100 % of control; T/C [9]: 95 % of control; T/C (dose: 400.0 mg/kg/injection, schedule: Q01DX009 (ip), vehicle: saline with Tween-80): 90 % of control

Question: How did the T/C [1] turn out when `COc1cc2ccc(Cc3nccc4cc(OC)c(OC)cc34)cc2cc1OC` was run?
Answer: Its T/C is 93 % of control.

Question: What about the T/C [2] of the same compound?
Answer: The T/C was 93 % of control.

Question: How did the T/C [8] turn out when `O=C(O)CNC(=O)c1ccc([N+](=O)[O-])cc1` was run?
Answer: Its T/C is 89 % of control.

Question: Which results are given for `c1ccc(-c2nc(N3CCOCC3)nc3ccccc23)cc1`?
Answer: T/C [10]: 104 % of control; T/C [11]: 88 % of control

Question: Which results are given for `COC(=O)C1C2CC3c4[nH]c5cc(OC)ccc5c4CCN3CC2CC(OC(=O)c2cc(OC)c(OC)c(OC)c2)C1OC` (stereo unspecified)?
Answer: T/C [12]: 105 % of control; T/C [4]: 105 % of control; T/C [5]: 110 % of control; T/C [6]: 97 % of control; T/C [7]: 90 % of control

Question: How did the T/C (dose: 50.0 mg/kg/injection, schedule: Q01DX009 (ip), vehicle: saline with Tween-80) turn out when `CCOC(=O)N1CCN(CCCCCOc2ccccc2C2CCCCC2)CC1` was run?
Answer: Its T/C is 103 % of control.

Question: Which T/C [10] does the source give for `CC12C=CC(C=C1)C(O)C2` (stereo unspecified) here?
Answer: The T/C was 112 % of control.

Question: And the T/C [11]?
Answer: The T/C was 93 % of control.

Question: What about the T/C (dose: 400.0 mg/kg/injection, schedule: Q04DX003 (ip), vehicle: saline with Tween-80) of the same compound?
Answer: The T/C was 101 % of control.

Question: What does the source list for `C1CCC2[N-]CC3CCCCC3[N-]CC3CCCCC3[N-]CC3CCCCC3[N-]CC2C1.[Cu]` (stereo unspecified)?
Answer: T/C (dose: 1.56 mg/kg/injection, schedule: Q01DX009 (ip), vehicle: Klucel (hydroxypropylcellulose) (HPC)): 123 % of control; T/C [12]: 156 % of control

Question: `CCOc1ccc(NC(=O)Nc2ccccc2)cc1` was tested. Which T/C [8] did it give?
Answer: The T/C was 86 % of control.

Question: For `COc1ccc(Br)cc1/C=N\NS(=O)(=O)c1ccc(C)cc1`, which T/C [1] is on record?
Answer: Its T/C is 94 % of control.

Question: And the T/C [8]?
Answer: Its T/C is 90 % of control.

Question: What about the T/C [2] of the same compound?
Answer: Its T/C is 110 % of control.

Question: What about the T/C [9] of the same compound?
Answer: Its T/C is 95 % of control.

Question: And the T/C [3]?
Answer: Its T/C is 100 % of control.

Question: How did the T/C [6] turn out when `CCCCCCCCCC1(C)OCC(COC(N)=O)O1` (stereo unspecified) was run?
Answer: The T/C was 90 % of control.

Question: What about the T/C [7] of the same compound?
Answer: Its T/C is 90 % of control.

Question: What about the T/C [1] of the same compound?
Answer: The T/C was 92 % of control.

Question: What about the T/C [2] of the same compound?
Answer: Its T/C is 95 % of control.

Question: And the T/C [3]?
Answer: Its T/C is 95 % of control.
